{
  "source": "patent US11919898B2",
  "about": "“Crystal form of azaindole derivative and use thereof” (Wuxi Life Fountain Biotech Co., Ltd, priority 2020, dated 2024)",
  "key": {"[1]": {"assay": "Solubility test in media of various pH (water, SGF, FaSSIF, FeSSIF)", "assay_type": "physicochemical", "conditions": "for solubility at 24 h: read-out: Solubility (mg/ml)_24 h", "protocol": "The solubility of the crystal form A of the compound of Formula (II) in 4 media with different pH values was tested. About 10 mg of the crystal form A of the compound of Formula (II) was weighed, and then 5.0 mL of different media (water, SGF, FaSSIF, and FeSSIF) were added respectively, to form a suspension. A magnetron was added to the suspension and the suspension was stirred on a magnetic stirrer for 2 hrs, and a sample was taken and centrifuged after 4 hrs. The sample in the upper layer was determined for concentration by HPLC and determined for the pH value.\n• FaSSIF: (1). 0.042 g of sodium hydroxide, 0.3438 g of sodium dihydrogen phosphate and 0.6186 g of sodium chloride were weighed, added to 90 mL of purified water and mixed well. The solution was adjusted to pH 6.5 with 1 N hydrochloric acid or 1 N sodium hydroxide, and made up to 100 mL with purified water. (2). 0.224 g of commercially available powder of FaSSIF/FeSSIF/FaSSGF was added to 50 mL of the buffer, stirred until dissolved, and made up to 100 mL with purified water. The prepared buffer was left to stand at room temperature for 2 hrs, and observed to be slightly milky white, which was ready for use (simulating intestinal juice in human before eating). • FeSSIF: (1). 0.404 g of sodium hydroxide, and 0.865 g of glacial acetic acid, 1.1874 g of sodium chloride were weighed and added to 90 mL of purified water and mixed well. The solution was adjusted to pH 5.0 with 1 N hydrochloric acid or 1 N sodium hydroxide, and made up to 100 mL with purified water. (2). 1.12 g of commercially available powder of FaSSIF/FeSSIF/FaSSGF was added to 50 mL of the buffer, stirred until dissolved, and made up to 100 mL with purified water. The prepared buffer was left to stand at room temperature for 2 hrs, and observed to be a clear liquid, which was ready for use (simulating intestinal juice in human after eating). • FaSSGF (SGF): (1). 0.2 g of sodium chloride was weighed and added to 90 mL of purified water and mixed well. The solution was adjusted to pH 1.8 with 1 N hydrochloric acid, made up to 100 mL with purified water, and left to stand until it was naturally cooled to room temperature (simulating human gastric juice before eating)."}, "SNU-16 xenograft model": {"tested_on": "SNU-16 xenograft model", "assay": "In vivo pharmacodynamic evaluation, SNU-16 xenograft model", "set-up": "species or system nude mice", "conditions": "for TGI % (the last dose is given on day 30): SNU-16 xenograft model, nude mice", "protocol": "SNU-16 cells in logarithmic growth phase were harvested, counted and resuspended in 50% PBS (pH 7.4, 0.01 M) and 50% Matrigel. The cell concentration was adjusted to 4×10^7 cells/mL, and the cells were then placed in an ice box. The cell suspension was aspirated with a 1 mL syringe and injected subcutaneously into the anterior right axilla of nude mice, at a dose of 200 μL/animal (8×10^6 cells/animal) to establish a SNU-16 xenograft model. The animal status was observed periodically, and the tumor size was measured using an electronic vernier caliper. The data was entered into an Excel spreadsheet, and the tumor volume was calculated, to monitor the tumor growth. When the tumor volume reached 100-300 mm^3, 35 tumor-bearing mice (with a tumor volume of 112-182 mm^3) in good health status having similar tumor volume were selected and randomized into 5 groups (n=7). The average tumor volume in each group was about 150 mm^3. After the test was started, the tumor size was measured twice a week, the tumor volume was calculated, and the body weight of the animal was weighed and recorded.\nAnalysis of tumor growth inhibition (TGI): The evolutionary growth potential of tumors was evaluated by the relationship between the tumor volume and time. The long axis (L) and short axis (W) of subcutaneous tumor were measured twice a week by a caliper, and the tumor volume (TV) was calculated by the formula ((L×W^2)/2). TGI was calculated from the difference between the median tumor volume of the mice in the solvent group and the median tumor volume of the mice in the drug group, and expressed as a percentage relative to the median tumor volume in the solvent control group.\nThe test data was calculated and statistically processed by SPSS19.0. Unless otherwise specified, the data were expressed as mean±standard error (Mean±SE), and the comparison between the two groups was analyzed by T-test. […] The solvent 30% PEG400 (containing 70% deionized water, v/v) alone was used as the negative control."}, "[2]": {"assay": "Pharmacokinetic evaluation in rats (intravenous and oral)", "assay_type": "in vivo, male SD rats", "protocol": "For agents for intravenous administration, 30% (v/v) PEG400 in purified water was as a vehicle. An appropriate amount of compound was accurately weighed into a glass flask, 30 vol % of PEG400 of the container volume was slowly added to the container with stirring, and then the remaining 70 vol % of pure water was added to make up to the final volume and stirred continuously until a clear solution was obtained. The solution was filtered through a […] filter membrane, and stored at room temperature for later use. The agents for intravenous administration were formulated on the day of administration, and injected into male SD rats via tail vein (fasted overnight before administration) at a dose of 0.5 mg/kg. Approximately 0.18 mL of blood was collected from the jugular vein or tail vein at 0.0833, 0.25, 0.5, 1.0, 2.0, 4.0, 8.0 and 24 hrs after intravenous administration. The corresponding test compound in the vehicle was administered by gavage to male SD rats (fasted overnight before administration) at a dose of 5 mg/kg. The experimental conditions are detailed in Table 20. Blood was collected from the jugular or tail vein at 0.0833, 0.25, 0.5, 1.0, 2.0, 4.0, 6.0, 8.0 and 24 hrs after oral administration. The blood was fed to an anticoagulation tube supplemented with EDTA-K2, and centrifuged to separate plasma. The plasma concentrations were determined by LC-MS/MS, and the relevant pharmacokinetic parameters were calculated by the linear logarithmic trapezoid method of non-compartmental model using WinNonlm™ Version 6.3 (Pharsight, Mountain View, CA) pharmacokinetic software."}, "[3]": {"conditions": "intravenous, 0.5 mg/kg, male SD rats"}, "[4]": {"conditions": "oral (gavage), 5 mg/kg, male SD rats"}, "[5]": {"conditions": "rat, plasma, PO, 5 mg/kg, male SD rats (table title says mice)"}},
  "note": "Read-outs that look alike come from different tables or passages of the source.",
  "data": [
    {"smiles": "COc1cc(OC)c(F)c(Cc2c[nH]c3ncc(-c4cnn(CCO)c4)cc23)c1F.Cl", "values": [
      {"measurement": "solubility at 24 h", "setting": "[1]; SGF (FaSSGF), pH 1.25, simulated gastric fluid, thermodynamic from solid, SGF, pH (24 h) 1.25, suspension", "result": 0.112, "unit": "mg/mL"},
      {"measurement": "solubility at 24 h", "setting": "[1]; pH 4.89, thermodynamic from solid, FeSSIF, pH (24 h) 4.89, suspension", "result": 0.252, "unit": "mg/mL"},
      {"measurement": "solubility at 24 h", "setting": "[1]; pH 5.55, thermodynamic from solid, FaSSIF, pH (24 h) 5.55, suspension", "result": 0.004, "unit": "mg/mL"},
      {"measurement": "Solubility in words", "setting": "[1]; simulated gastric juice before eating in human (SGF)", "result": "good"},
      {"measurement": "Solubility in words", "setting": "[1]; simulated intestinal juice before eating (FaSSIF)", "result": "poor"},
      {"measurement": "Solubility in words", "setting": "[1]; simulated intestinal juice of the small intestine after eating in human (FeSSIF)", "result": "good"},
      {"measurement": "Solubility in words", "setting": "[1]; water", "result": "hard to dissolve in water"},
      {"measurement": "solubility at 24 h", "setting": "[1]; water, pH 2.42, water, thermodynamic from solid", "result": 0.009, "unit": "mg/mL"},
      {"measurement": "TGI % (the last dose is given on day 30)", "setting": "SNU-16 xenograft model; 2.5 mg/kg BID", "result": 72, "unit": "%"},
      {"measurement": "TGI % (the last dose is given on day 30)", "setting": "SNU-16 xenograft model; 5.0 mg/kg BID", "result": 86, "unit": "%"},
      {"measurement": "Tumor inhibitory effect", "setting": "SNU-16 xenograft model; tumor model SNU-16, nude mice", "result": "excellent tumor inhibitory effect"},
      {"measurement": "Drug exposure", "setting": "[2]; [3]", "result": "high level"},
      {"measurement": "Volume of distribution", "setting": "[2]; [3]", "result": "high"},
      {"measurement": "clearance", "setting": "[2]; [3]", "result": "moderately low"},
      {"measurement": "half-life", "setting": "[2]; [3]", "result": "moderate"},
      {"measurement": "Oral exposure", "setting": "[2]; [4]", "result": "high level"},
      {"measurement": "Oral exposure level compared with other salt crystal forms", "setting": "[2]; [4]", "result": "higher than that of the crystal form G of the compound of Formula (III), and the crystal form J of the compound of Formula (III)"},
      {"measurement": "Peak time", "setting": "[2]; [4]", "result": "rapid"},
      {"measurement": "AUC(0-t)", "setting": "[2]; rat, plasma, IV, 0.5 mg/kg, male SD rats (table title says mice)", "result": 1.01, "unit": "µM·h"},
      {"measurement": "clearance", "setting": "[2]; rat, plasma, IV, 0.5 mg/kg, male SD rats (table title says mice), read-out: Cl", "result": 18.4, "unit": "mL/min/kg"},
      {"measurement": "half-life", "setting": "[2]; rat, plasma, IV, 0.5 mg/kg, male SD rats (table title says mice), read-out: T1/2 (converted)", "result": 79.2, "unit": "min"},
      {"measurement": "Vd", "setting": "[2]; rat, plasma, IV, 0.5 mg/kg, male SD rats (table title says mice), read-out: Vdss", "result": 1.87, "unit": "L/kg"},
      {"measurement": "AUC(0-t)", "setting": "[2]; [5]", "result": 5.18, "unit": "µM·h"},
      {"measurement": "Cmax", "setting": "[2]; [5]", "result": 1960, "unit": "nM"},
      {"measurement": "Tmax", "setting": "[2]; [5]", "result": 30, "unit": "min"}
    ]}
  ]
}
